Measurements as given in PubChem BioAssay AID248 (DTP/NCI, 2004).
Where “and” joins values, the source holds several entries; their conditions need not be identical. Identical values can stand only once. Inconclusive results and toxic doses are left out. Rule as the data show it: active = T/C of 150% or more; inactive = T/C below 125%.

Tested on: L1210 leukemia ip in BDF1 mice, survival T/C
Experiment: NCI In Vivo Anticancer Drug Screen. Data for tumor model L1210 Leukemia (intraperitoneal) in B6D2F1 (BDF1) mice
Conditions: endpoint: mean survival time, higher = longer survival
Method in brief: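 Ratio derived from survival: compound-dosed mice over vehicle-dosed mice, all bearing a transplantable tumor.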

[1] = dose: 25.0 mg/kg/injection, schedule: Q04DX002 (ip), vehicle: Klucel (hydroxypropylcellulose) (HPC)
[2] = dose: 50.0 mg/kg/injection, schedule: Q04DX002 (ip), vehicle: Klucel (hydroxypropylcellulose) (HPC)
[3] = dose: 100.0 mg/kg/injection, schedule: Q04DX002 (ip), vehicle: Klucel (hydroxypropylcellulose) (HPC)
[4] = dose: 100.0 mg/kg/injection, schedule: Q04DX003 (ip), vehicle: Klucel (hydroxypropylcellulose) (HPC)
[5] = dose: 200.0 mg/kg/injection, schedule: Q04DX003 (ip), vehicle: Klucel (hydroxypropylcellulose) (HPC)
[6] = dose: 400.0 mg/kg/injection, schedule: Q04DX003 (ip), vehicle: Klucel (hydroxypropylcellulose) (HPC)
[7] = dose: 50.0 mg/kg/injection, schedule: Q01DX009 (ip), vehicle: saline with Tween-80
[8] = dose: 100.0 mg/kg/injection, schedule: Q01DX009 (ip), vehicle: saline with Tween-80
[9] = dose: 100.0 mg/kg/injection, schedule: Q04DX003 (ip), vehicle: saline with Tween-80
[10] = dose: 200.0 mg/kg/injection, schedule: Q01DX009 (ip), vehicle: saline with Tween-80
[11] = dose: 200.0 mg/kg/injection, schedule: Q04DX003 (ip), vehicle: saline with Tween-80
[12] = dose: 400.0 mg/kg/injection, schedule: Q04DX003 (ip), vehicle: saline with Tween-80
[13] = dose: 400.0 mg/kg/injection, schedule: Q04DX002 (ip), vehicle: Klucel (hydroxypropylcellulose) (HPC)
[14] = dose: 100.0 mg/kg/injection, schedule: Q01DX001 (ip), vehicle: Klucel (hydroxypropylcellulose) (HPC)
[15] = dose: 200.0 mg/kg/injection, schedule: Q01DX001 (ip), vehicle: Klucel (hydroxypropylcellulose) (HPC)
[16] = dose: 400.0 mg/kg/injection, schedule: Q01DX001 (ip), vehicle: Klucel (hydroxypropylcellulose) (HPC)
[17] = dose: 100.0 mg/kg/injection, schedule: Q04DX003 (ip), vehicle: saline
[18] = dose: 200.0 mg/kg/injection, schedule: Q04DX003 (ip), vehicle: saline
[19] = dose: 100.0 mg/kg/injection, schedule: Q01DX001 (ip), vehicle: carboxymethylcellulose (CMC)
[20] = dose: 200.0 mg/kg/injection, schedule: Q01DX001 (ip), vehicle: carboxymethylcellulose (CMC)
[21] = dose: 400.0 mg/kg/injection, schedule: Q01DX001 (ip), vehicle: carboxymethylcellulose (CMC)
[22] = dose: 200.0 mg/kg/injection, schedule: Q04DX002 (ip), vehicle: Klucel (hydroxypropylcellulose) (HPC)
[23] = dose: 100.0 mg/kg/injection, schedule: Q01DX001 (ip), vehicle: saline with Tween-80
[24] = dose: 200.0 mg/kg/injection, schedule: Q01DX001 (ip), vehicle: saline with Tween-80
[25] = dose: 400.0 mg/kg/injection, schedule: Q01DX001 (ip), vehicle: saline with Tween-80
[26] = dose: 50.0 mg/kg/injection, schedule: Q01DX009 (ip), vehicle: Klucel (hydroxypropylcellulose) (HPC)
[27] = dose: 100.0 mg/kg/injection, schedule: Q01DX009 (ip), vehicle: Klucel (hydroxypropylcellulose) (HPC)
[28] = dose: 200.0 mg/kg/injection, schedule: Q01DX009 (ip), vehicle: Klucel (hydroxypropylcellulose) (HPC)
[29] = dose: 100.0 mg/kg/injection, schedule: Q01DX009 (ip), vehicle: saline
[30] = dose: 400.0 mg/kg/injection, schedule: Q01DX009 (ip), vehicle: Klucel (hydroxypropylcellulose) (HPC)
[31] = dose: 100.0 mg/kg/injection, schedule: Q01DX001 (ip), vehicle: saline
[32] = dose: 200.0 mg/kg/injection, schedule: Q01DX001 (ip), vehicle: saline
[33] = dose: 400.0 mg/kg/injection, schedule: Q01DX001 (ip), vehicle: saline

Measured: T/C

CCCCCCCCCCCCCCCCNC(=S)NCCCCCCCCCCCCCCCC
inactive: [1] 93 % of control | [2] 90 % of control | [3] 102 % of control | [4] 95 % of control | [5] 101 % of control | [6] 88 % of control

Cc1c2cnccc2c(C)c2c1c1ccccc1n2CCOC(=O)c1ccccc1
inactive: [7] 88 % of control | [8] 98 % of control and 88 % of control | [9] 100 % of control | [10] 93 % of control | [11] 97 % of control | dose: 400.0 mg/kg/injection, schedule: Q01DX009 (ip), vehicle: saline with Tween-80 95 % of control | [12] 91 % of control

CNc1ccccc1CCc1ccccc1CO
inactive: [13] 89 % of control

CCOC(=O)Nc1cc(N(C)CC(O)CN(C)c2ccccc2)c([N+](=O)[O-])c(N)n1 (stereo not given)
inactive: [14] 101 % of control | [15] 104 % of control | [16] 97 % of control

Cn1c(=S)sc2cc(Cl)ccc21
inactive: [9] 104 % of control | [11] 101 % of control | [12] 98 % of control

Cc1ccc(S(=O)(=O)C[n+]2cc(C)cc(C)c2)cc1
inactive: [17] 95 % of control | [18] 103 % of control

CCN(CC)C(=S)[S][Sn]([S]C(=S)N(CC)CC)([c]1ccccc1)[c]1ccccc1
inactive: dose: 100.0 mg/kg/injection, schedule: Q01DX001 (ip), vehicle: other 97 % of control | dose: 200.0 mg/kg/injection, schedule: Q01DX001 (ip), vehicle: other 104 % of control | dose: 400.0 mg/kg/injection, schedule: Q01DX001 (ip), vehicle: other 112 % of control

CCCCCCCCCCCCCCCCS(=O)(=O)N/N=C/c1ccc(N(C)C)cc1
inactive: [19] 92 % of control | [20] 87 % of control | [21] 89 % of control

OCC1OC(n2cc(Br)c3c(=S)nc[nH]c32)C(O)C1O (stereo not given)
inactive: [19] 104 % of control | [20] 110 % of control | [21] 106 % of control

Cc1ccc(S(=O)(=O)N/N=C2/CC(C)(C)CC(=O)C2(C)C)cc1
inactive: [3] 102 % of control | [22] 102 % of control | [13] 102 % of control

Brc1ccccc1-c1ccccc1-c1ccccc1
inactive: [9] 92 % of control | [11] 100 % of control | [12] 92 % of control

Cc1ccc(S(=O)(=O)OCCC2(C)CC2)cc1
inactive: [23] 93 % of control | [24] 90 % of control | [25] 90 % of control

CN(C)C(=O)Sc1ccc(SC(=O)N(C)C)cc1
inactive: [23] 97 % of control | [24] 97 % of control | [25] 97 % of control

Cc1nccnc1S(=O)c1ccc(Br)cc1 (stereo not given)
inactive: [14] 98 % of control | [15] 95 % of control | [16] 92 % of control

COc1cc(Cl)ccc1C
inactive: [7] 98 % of control | [8] 93 % of control | [9] 93 % of control | [10] 90 % of control | [11] 89 % of control

c1ccc(COc2ccccn2)cc1
inactive: [26] 95 % of control | [27] 97 % of control | [4] 98 % of control | [5] 98 % of control

c1ccc(-c2cc3ccccc3[nH]2)cc1
inactive: [14] 98 % of control | [15] 96 % of control | [28] 94 % of control | [16] 102 % of control

COc1ccc(C2OC23CCCc2ccccc2C3=O)cc1 (stereo not given)
inactive: [4] 95 % of control | [5] 97 % of control | [6] 89 % of control

COC1=CC23CCCN2CCc2cc4c(cc2C3C1OC(C)=O)OCO4 (stereo not given)
inactive: dose: 25.0 mg/kg/injection, schedule: Q01DX009 (ip), vehicle: saline 106 % of control | dose: 50.0 mg/kg/injection, schedule: Q01DX009 (ip), vehicle: saline 106 % of control | [29] 102 % of control

CCC(O)CC(=O)O (stereo not given) (tested in a mixture with another compound)
inactive: [1] 104 % of control | [2] 101 % of control | [3] 101 % of control

CN1C(=O)c2ccccc2C1(N)c1ccccc1 (stereo not given)
inactive: [27] 90 % of control | [28] 105 % of control | [30] 100 % of control

CCCCOC(=O)c1ccc(OC(=O)Nc2cc(OC)ccc2OC)cc1
inactive: [9] 95 % of control | [11] 91 % of control | [12] 90 % of control

O=C(N/N=C/C1CCCCC1)C(=O)N/N=C/C1CCCCC1
inactive: dose: 12.5 mg/kg/injection, schedule: Q01DX009 (ip), vehicle: Klucel (hydroxypropylcellulose) (HPC) 90 % of control | dose: 25.0 mg/kg/injection, schedule: Q01DX009 (ip), vehicle: Klucel (hydroxypropylcellulose) (HPC) 96 % of control and 89 % of control | [28] 89 % of control

CCc1cccc(CC)c1NC(=O)Nc1ccc(Br)cc1
inactive: dose: 50.0 mg/kg/injection, schedule: Q04DX003 (ip), vehicle: saline 87 % of control | [31] 86 % of control | [17] 87 % of control | [32] 89 % of control | [18] 92 % of control

Cc1ccc2c(C)nc(N=C(N)N)nc2c1
inactive: dose: 18.8 mg/kg/injection, schedule: Q04DX003 (ip), vehicle: saline 96 % of control | dose: 37.5 mg/kg/injection, schedule: Q04DX003 (ip), vehicle: saline 100 % of control | dose: 75.0 mg/kg/injection, schedule: Q01DX001 (ip), vehicle: saline 103 % of control | dose: 75.0 mg/kg/injection, schedule: Q04DX003 (ip), vehicle: saline 97 % of control

Cc1cc(C)c(C(=O)C=O)c(C)c1
inactive: [26] 101 % of control | [27] 100 % of control | [4] 104 % of control | [28] 95 % of control | [5] 107 % of control

COc1ccc(C(=O)C(C)C(C)OC(=O)c2ccccc2C(=O)O)cc1 (stereo not given)
inactive: [31] 96 % of control | [32] 98 % of control | [33] 93 % of control

CN(C)c1ccc(-c2cc(NS(=O)(=O)c3ccccc3)ccc2NS(=O)(=O)c2ccccc2)cc1
inactive: [14] 96 % of control | [15] 94 % of control | [16] 96 % of control

CCOC(=O)c1cc(Cl)c2ccccc2n1
inactive: [31] 96 % of control | [32] 98 % of control | [33] 96 % of control

CC(C)C(C)/C=C\C(C)C1CCC2C3=CCC4CC(O)CCC4(C)C3CCC21C (stereo not given)
inactive: [14] 97 % of control | [15] 97 % of control | [16] 97 % of control

CN1C(c2ccccc2)=CN(Cc2ccccc2)C=C1c1ccccc1
inactive: [2] 103 % of control | [3] 100 % of control | [22] 97 % of control

Clc1ccc(C2(CBr)OCCO2)cc1
inactive: [27] 98 % of control and 105 % of control | [3] 95 % of control and 100 % of control | [28] 101 % of control and 91 % of control | [22] 97 % of control and 98 % of control | [30] 97 % of control and 98 % of control | [13] 98 % of control and 108 % of control

O=C1CCC(=O)C12CCNCC2
inactive: [29] 97 % of control | [17] 100 % of control | dose: 200.0 mg/kg/injection, schedule: Q01DX009 (ip), vehicle: saline 104 % of control | [18] 88 % of control | dose: 400.0 mg/kg/injection, schedule: Q04DX003 (ip), vehicle: saline 107 % of control

O=C1CCCCc2cc(O)c([N+](=O)[O-])cc21
inactive: [7] 101 % of control | [8] 95 % of control

Clc1ccc(OCc2sc3ccc(Cl)cc3c2CN2CCCCC2)cc1
inactive: dose: 25.0 mg/kg/injection, schedule: Q04DX003 (ip), vehicle: saline with Tween-80 88 % of control | dose: 50.0 mg/kg/injection, schedule: Q04DX003 (ip), vehicle: saline with Tween-80 87 % of control | [9] 90 % of control and 92 % of control

O=S(CCCl)c1ccccc1 (stereo not given)
inactive: [4] 98 % of control | [5] 98 % of control | [6] 98 % of control
